Data: US20230340061A1, “PEPTIDES AND METHODS FOR THE TREATMENT OF MULTIPLE SCLEROSIS” (IMCYSE SA, priority 2020, published 2023)

Experiments:
[1] = system: Experimental Auto-Immune Encephalomyelitis (EAE); assay: Therapeutic administration in MOG35-55-induced EAE; assay type: in vivo; conditions: 30 μg s.c. with alum, days 4, 9, 14, 19, vs Saline group
Method: The study used a total of 48 female C57BL/6 mice (Taconic Biosciences, 9 weeks old on Day 0). Mice were acclimated for 7 days prior to the first injection. Mice were assigned to groups in a balanced manner to achieve similar average weight across the groups at the start of the study.
Dosing of all mice was performed once on each of the days indicated in Table 2, s.c., at a volume of 0.05 mL/site, each mouse receiving injection at two sites, for a total of 0.1 mL/mouse/dosing day. IMCY-0189 or P4 peptide total dose was 30 μg per administration.
Lyophilized immunogenic peptide IMCY-0189 with the sequence […] (SEQ ID NO: 260), comprising an oxidoreductase motif HCPYC (SEQ ID NO: 24), a linker GW, a murine Myelin Oligodendrocyte Glycoprotein (MOG35-55) MHCII T cell epitope […] (SEQ ID NO: 261) and a flanking sequence HLYR (SEQ ID NO: 262) (Smart Bioscience) was solubilized immediately before use. Lyophilized IMCY-0189 was thawed at room temperature for 10 minutes, resuspended in Na Acetate buffer 50 mM NaCl 0.9% pH 5.4 and incubated at room temperature for 10 minutes. Reconstituted peptide was then mixed with Imject™ Alum Adjuvant before injection.
Lyophilized immunogenic peptide P4 with the sequence […] (SEQ ID NO: 27), comprising an oxidoreductase motif KHCPYC (SEQ ID NO: 50), a linker VRY, a human Myelin Oligodendrocyte Glycoprotein (MOG201-212) MHCII T cell epitope […] (SEQ ID NO: 2) and a flanking sequence TLFKK (SEQ ID NO: 263) (Smart Bioscience) was solubilized immediately before use. Lyophilized P4 was thawed at room temperature for 10 minutes, resuspended in Na Acetate buffer 50 mM NaCl 0.9% pH 5.4 and incubated at room temperature for 10 minutes. Reconstituted peptide was then mixed with Imject™ Alum Adjuvant before injection.
EAE was induced in all mice as follows: • Day 0, Hour 0—Immunization with a peptide corresponding to the amino acids 35-55 of MOG (MOG35-55)/CFA • Day 0, Hour 2—Injection of pertussis toxin • Day 1, Hour 0—2nd injection of pertussis toxin (24 hours after initial immunization).
Mice were injected subcutaneously at two sites in the back with the emulsion component (containing MOG35-55) of Hooke Kit™ MOG35-55/CFA Emulsion PTX, catalog number EK-2110 (lot #131, Hooke Laboratories, Lawrence MA). One site of injection was in the area of upper back, approximately 1 cm caudal of the neck line. The second site was in the area of lower back, approximately 2 cm cranial of the base of the tail. The injection volume was 0.1 mL at each site. Each mouse received 200 μg of MOG35-55.
Within 2 hours of the injection of emulsion, and then again 24 hours after the injection of emulsion, the pertussis toxin component of the kit was administered intraperitoneally. The pertussis toxin (lot #1008, Hooke Laboratories) was administered at 90 ng/dose for both injections and the volume of each injection was 0.1 mL.
Animals were scored daily starting from Day 7 to the end of the study. Scoring was performed blind, by a person unaware of both treatment and of previous scores for each mouse. In-between scores were assigned when the clinical signs fell between two above defined scores.
On Day 28, blood was collected from all mice into gel clot activator tubes and allowed to clot at room temperature for ˜30 minutes. Blood is then centrifuged at ˜10000 g for 5 minutes. Serum was transferred into Eppendorf tubes and stored at −80° C. until shipment to Quanterix™. Serum Neurofilament light (NF-L) protein levels were quantified using Simoa® NF-light Advantage kit, a digital immunoassay for the quantitative determination of NF-L in serum, plasma and CSF. The used antibodies (Uman Diagnostics, Umea Sweden) also cross react with murine, bovine and macaque NF-L epitopes and as such, this assay can be used for research with these species. All samples were tested in duplicate at a dilution factor of 40×. […]

[2] = system: CD4+ T cells of patients with multiple sclerosis; assay: Surface expression of lytic marker Fas ligand (CD178) by flow cytometry; assay type: cell-based, human; conditions: CD4+ cell lines of patients MS017 (S9) and MS020 (S10)
Method: (§1) Naïve CD4+ T cells were also purified from the CD14- PBMCs fraction by performing negative immunomagnetic separation with naïve CD4+ T cell isolation kit (Miltenyi Biotec, 130-094-131) according to the supplier recommendations. Naïve CD4+ T cells were co-cultured with autologous mDC or LCL in the presence of P2 and P4 peptides. The CD4+ T cells were re-stimulated periodically, about every 10-12 days.
(§2) The ability of the peptides to generate antigen specific CD4+ T cells was evaluated by flow cytometry analysis of the TCR induced surface activation marker CD154 (CD40L) expression after overnight co-culture at resting state with autologous LCL without (no peptide) or with the peptides (P2 or P4). The surface expression of the lytic marker Fas ligand (CD178) was also evaluated by flow cytometry analysis after overnight co-culture at resting state with autologous LCL without (no peptide) or with the peptide (P4).

[3] = system: CD4+ T cells of patients with multiple sclerosis; assay: Generation of antigen specific CD4+ T cells, CD154 (CD40L) expression by flow cytometry; assay type: cell-based, human; conditions: for specific induction of effector cells (CD3+CD4+CD154+): overnight co-culture
Method: PBMCs were isolated from blood samples of patients with multiple sclerosis treated by dimethyl fumarate (DMF) on Lymphoprep density gradients.
(§3) CD14+ monocytes were isolated from these PBMCs by performing positive immunomagnetic separation with CD14 microbeads (Miltenyi Biotec, 130-050-201) according to the supplier recommendations. CD14+ monocytes were cultured for six days and maturated to generate autologous dendritic cells (mDC). CD19+ B cells were isolated from the CD14- PBMCs fraction by performing positive immunomagnetic separation with CD19 microbeads (Miltenyi Biotec, 130-050-301) according to the supplier recommendations. CD19+ B cells were cultured and immortalized with EBV to generate autologous lymphoblastoid cell lines (LCL).
as §1, §2

[4] = system: CD4+ T cells of patients with multiple sclerosis; assay: Cytokine secretion in CD4+ T cell culture supernatants (LEGENDplex Human Th Panel); assay type: cell-based
Text: as §1
The ability of the peptides to induce cytokines secretion in CD4+ T cells culture supernatants was evaluated by flow cytometry analysis after overnight co-culture at resting state with autologous mDC without (no peptide) or with the peptides (P2 or P4). Supernatants were analyzed with the LEGENDplex Human Th Panel (13-plex) (BioLegend, 740721) according to the supplier recommendations.

autologous LCL = assay: Cytolytic activity: apoptosis of autologous LCL (Annexin V); assay type: cell-based, human; conditions: peptide-loaded labelled autologous LCL co-cultured with P4-specific CD4+ T cell lines from patients MS017 (S7), MS026 (S12), MS028 (S11) and MS029 (S9)
Method: as §3
The cytolytic activity of the antigen specific CD4+ T cells was evaluated by quantifying the apoptosis induced on LCL used as antigen presenting cells. Fluorescently labelled autologous LCL, loaded or not with the peptide (P4), were overnight co-cultured at resting state with specific CD4+ T cells, and LCL apoptosis was quantified by flow cytometry through Annexin V staining. Considering the apoptosis percentage of unloaded LCL, used as control, the percentage of specific apoptosis was calculated as follows

[5] = target: T1, soluble HLA-DRB1*04:01 human MHC II protein (human); assay: soluble-phase competition vs biotin-tagged control peptide, Eu3+-streptavidin fluorescence (FIG. 3)
T1 construct: Soluble protein purchased from the Benaroya Research Institute; also called HLA-DR4; DR4
Method: (§4) To test the binding of the immunogenic peptides to MHCII molecules, a soluble phase competition assay is performed. […] As binding approaches its equilibrium (18h), biotin-labelled peptide/MHC II complexes are captured, separated from unbound reagents, and quantitatively detected by time-resolved fluorescence (Eu³⁺ streptavidin, Perkin Elmer, Brussels, Belgium). […] Data are processed and plotted to ascertain dose-dependent binding properties of test peptides. All the tests are performed in triplicates.

[6] = target: T2, soluble HLA-DRB1*03:01 human MHC II protein (human); assay: soluble-phase competition vs biotin-tagged control peptide, Eu3+-streptavidin fluorescence (FIG. 2)
T2 construct: Soluble protein purchased from the Benaroya Research Institute; also called HLA-DR3; DR3
Method: as §4

[7] = P4-specific CD4+ cell lines of patients MS024 (S20), MS017 (S9), MS026 (S13), MS028 (S11) and MS029 (S9)
[8] = culture supernatant of MS017 (S12) and MS024 (S20) CD4+ cell lines, P4 vs S-WT epitope peptide

| Molecule | AUC (area under the curve) of EAE scores [1] | MMS (mean maximal score) [1] | disease onset [1] | level of demyelination (anti-MBP stained spinal cord sections) [1] | level of inflammation (inflammatory foci, H&E stained spinal cord sections) [1] | serum NF-L levels ([1]; Day 28) | end score ([1]; EAE score 0-5) | effector cells expressing the lytic marker Fas ligand (CD3+CD4+CD154+FasL+) [2] | specific induction of effector cells (CD3+CD4+CD154+) ([3]; P4-specific CD4+ cell lines of patients MS017 (S14) and MS026 (S13)) | specific induction of effector cells (CD3+CD4+CD154+) [3, 7] | generation of peptide-specific CD4+ T cell lines from MS patients ([3]; naive CD4+ T cells co-cultured with autologous mDC or LCL in presence of peptide) | frequency of effector cells (CD3+CD4+CD154+) ([3]; patients' CD4+ cell lines, overnight co-culture with autologous LCL with peptide vs no peptide) | specific secretion of cytokine (IL-5) [4, 8] | specific secretion of cytokine (IL-5) ([4]; culture supernatant of MS017 (S15) CD4+ cell line, P4 vs C-WT epitope peptides) | specific secretion of cytokine (IL-5) ([4]; culture supernatant of MS017 (S15), MS024 (S20) and MS026 (S14) CD4+ cell lines) | percentage of specific LCL apoptosis (autologous LCL) | binding result [5] | binding result [6] |
| --- | --- | --- | --- | --- | --- | --- | --- | --- | --- | --- | --- | --- | --- | --- | --- | --- | --- | --- |
| KHCPYCVRYFLRVPSWKITLFKK [P4] | statistically significant reduced | statistically significant reduced | postponed | reduced level | reduced level | statistically significant reduced | reduced | specific increase | specific induction | specific induction | able to generate P4-specific CD4+ T cell lines from eight different MS patients | high frequency | specific secretion | specific secretion | specific secretion | increase |  |  |
| KLHRTFDPHFLRVPSWKITLFK [short S-WT, reference compound] |  |  |  |  |  |  |  |  |  | specific induction |  |  | specific secretion |  |  | increase |  |  |
| HCPYCVRYFLRVPCWKITLF (Synthetic) [P3 peptide HCPYCVRYFLRVPCWKITLF] |  |  |  |  |  |  |  |  |  |  |  |  |  |  |  |  | binds | binds |
